{"source": "patent US10295551B2", "about": "“Development and use of fluorescent probes of unbound bilirubin” (Alan Marc Kleinfeld, priority 2011, dated 2019)", "key": {"[1]": {"target": "T1, rat intestinal fatty acid binding protein (rI-FABP, SEQ ID NO: 3) variant L24P19C7, 14R 18L 38V 60R 73F 106C 115R 117D, SEQ ID NO: 36 (Rattus norvegicus, UniProt P02693, A74F/L39V/L73A/M19L/Q116R/R107C/V61R/Y118D/Y15R)", "T1 construct": "made in house", "T1 sequence (P02693 with tags, fused parts or gaps Y15R/M19L/L39V/V61R/L73A/A74F/R107C/Q116R/Y118D)": "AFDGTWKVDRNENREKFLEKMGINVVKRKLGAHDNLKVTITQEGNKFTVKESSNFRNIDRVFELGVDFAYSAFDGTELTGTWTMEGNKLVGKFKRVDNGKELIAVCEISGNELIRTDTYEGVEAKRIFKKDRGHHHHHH", "assay": "bilirubin binding to L24P19C7 probe (fluorescence titration)", "method": "Also described are analytical/mathematical methods for calibrating and using the bilirubin probes. Bilirubin probes are calibrated to determine their binding affinity for bilirubin (dissociation constant Kd) under conditions, such as temperature, pH and solution composition, that correspond to samples in which it is desired to know the unbound bilirubin concentration. Binding isotherms are performed in aqueous buffer by measuring the change in fluorescence of the bilirubin probes in response to increasing bilirubin concentrations (“titration data”). The set of fluorescence responses at each bilirubin concentration are fitted with an appropriate equation (“calibration equation”) that correctly describes the fluorescence response as a function of the bilirubin concentration, the probe concentration, specific spectroscopic characteristics, and the Kd. […] Bilirubin probes are derived from a rat intestinal fatty acid binding protein (rI-FABP) as described previously for unbound FFA (FFAu) probes in U.S. Pat. No. 7,601,510, U.S. publication 2010/0298162 and [Huber A H, Zhu […] and […]. Fluorescence Sensor for the Quantification of Unbound Bilirubin Concentrations. Clin Chem 58: 869-876, 2012; Huber […], Zhu B and […]. Fatty acid-specific fluorescent probes and their use in resolving mixtures of different unbound free fatty acids in equilibrium with albumin. […]"}, "[2]": {"target": "T2, rI-FABP (SEQ ID NO: 3) variant L22P33 A10, 38R 72A 73N 106S 115C (Rattus norvegicus, UniProt P02693, A74N/L39R/L73A/Q116C/R107S)", "T2 construct": "made in house", "T2 sequence (P02693 with tags, fused parts or gaps L39R/L73A/A74N/R107S/Q116C)": "as the sequence (P02693 with tags, fused parts or gaps Y15R/M19L/L39V/V61R/L73A/A74F/R107C/Q116R/Y118D) above, with R14Y, L18M, V38R, R60V, F73N, C106S, R115C, D117Y counted along it", "assay": "bilirubin binding to L22P33A10 probe", "conditions": "Table 5, acrylodan", "method": "(§1) Also described are analytical/mathematical methods for calibrating and using the bilirubin probes. Bilirubin probes are calibrated to determine their binding affinity for bilirubin (dissociation constant Kd) under conditions, such as temperature, pH and solution composition, that correspond to samples in which it is desired to know the unbound bilirubin concentration. Binding isotherms are performed in aqueous buffer by measuring the change in fluorescence of the bilirubin probes in response to increasing bilirubin concentrations (“titration data”). The set of fluorescence responses at each bilirubin concentration are fitted with an appropriate equation (“calibration equation”) that correctly describes the fluorescence response as a function of the bilirubin concentration, the probe concentration, specific spectroscopic characteristics, and the Kd."}, "[3]": {"target": "T3, rI-FABP (SEQ ID NO: 3) variant BL10P10 D10, 14F 18L 27C 38M 60Y 73F 106V 115R 117D (Rattus norvegicus, UniProt P02693, A74F/K28C/L39M/L73A/M19L/Q116R/R107V/V61Y/Y118D/Y15F)", "T3 construct": "made in house", "T3 sequence (P02693 with tags, fused parts or gaps Y15F/M19L/K28C/L39M/V61Y/L73A/A74F/R107V/Q116R/Y118D)": "as the sequence (P02693 with tags, fused parts or gaps Y15R/M19L/L39V/V61R/L73A/A74F/R107C/Q116R/Y118D) above, with R14F, K27C, V38M, R60Y, C106V counted along it", "assay": "bilirubin binding to BL10P10D10 probe", "conditions": "Table 5, acrylodan", "method": "as §1"}}, "data": [{"smiles": "C=CC1=C(C)/C(=C/c2[nH]c(Cc3[nH]c(/C=C4\\NC(=O)C(C)=C4C=C)c(C)c3CCC(=O)O)c(CCC(=O)O)c2C)NC1=O", "note": "[bilirubin]", "values": [{"measurement": "Kd", "setting": "[1]; 22° C., aqueous bilirubin, acrylodan label", "result": 22, "unit": "nM"}, {"measurement": "Kd", "setting": "[1]; Table 5, acrylodan", "result": 35, "unit": "nM"}, {"measurement": "Kd", "setting": "[2]", "result": 245, "unit": "nM"}, {"measurement": "Kd", "setting": "[3]", "result": 400, "unit": "nM"}]}]}
